Consider one molecule from patent US11952368B2, “FAPI dimer compound, FAPI dimer-based positron emission tomography (PET) imaging agent for tumor diagnosis, and preparation method and use thereof” (XIAMEN UNIVERSITY, priority 2021, dated 2024).

Molecules are shown by their SMILES.

Series [1] in a line: Stability test: incubation in PBS or FBS, radiochemical purity by HPLC. It counts as in vitro ADME. The following applies: 37° C., 1 h, 2 h, and 4 h. The protocol:
20 μL of a solution of the ^68Ga-2PEG(3)-FAPI-dimer (3.7 MBq activity/20 μL) prepared in Example 1 (with normal saline (NS) as a solvent) was taken and added to a centrifuge tube with 100 μL of FBS, and incubated at 37° C. for 1 h, 2 h, and 4 h to obtain an FBS co-incubation solution; 20 μL of the FBS co-incubation solution was taken, 40 μL of acetonitrile was added for protein precipitation, and a resulting mixture was filtered through a 0.22 μm needle filter membrane; and a radiochemical purity was analyzed through HPLC.
20 μL of a solution of the ^68Ga-2PEG(3)-FAPI-dimer (3.7 MBq activity/20 μL) prepared in Example 1 (with NS as a solvent) was taken and added to a centrifuge tube with 100 μL of PBS (pH=7.4), and incubated at 37° C. for 1 h, 2 h, and 4 h to obtain a PBS co-incubation solution; 20 μL of the PBS co-incubation solution was taken and filtered through a 0.22 μm needle filter membrane; and a radiochemical purity was analyzed through HPLC.

For series [2], the system named is HCC-PDX-1. Put plainly: PET imaging in HCC-PDX-1 model. It counts as in vivo, mouse. How it is done: The PET imaging and biodistribution studies were conducted in HCC-PDX1 and HCC-PDX2 mouse models. The histological verification was first conducted, where the immunohistochemical staining and H&E staining were conducted for FAP and Ki67, a tumor tissue was digested for protein extraction, and the expression of FAP was detected by Western Blot. Verification results were shown in FIG. 6A-B, where the immunohistochemical staining result was shown in FIG. 6A and the Western Blot result was shown in FIG. 6B. […] Therefore, the models can be used for further mouse experiments.
The products of ^68Ga-2PEG(3)-FAPI-dimer and ^68Ga-FAPI-46 were each diluted to a concentration of 74 MBq/mL. 7.4 MBq of ^68Ga-2PEG(3)-FAPI-dimer or 7.4 MBq of ^68Ga-FAPI-46 was injected into the HCC-PDX model through the tail vein (3 parallel experiments per group). All PET scans were conducted with an Inveon small animal PET scanner (Siemens Preclinical Solution, USA). The dynamic PET imaging was conducted with a scan duration of 60 min and reconstructed frames of 10×30 s, 10×60 s, 10×120 s, and 9×160 s. The 10 min static PET imaging was conducted with acquisition time points of 0.5 h, 1 h, 2 h, and 4 h after injection. For the blocking experiment, 30 nmol of unlabeled FAPI-46 was added to a ^68Ga-2PEG(3)-FAPI-dimer solution (with NS as a solvent) before injection. An image was iteratively reconstructed with 3D OPMAP 256.pPetRcn (Siemens) and converted into a % ID/g image. Region of interests (ROIs) in the tumor, liver, heart, kidney, and muscle were calculated on PET images to quantify radioactive signals.

For a further series, the target named is T1, FAP on CAFs (Homo sapiens, UniProt Q12884).
T1 construct: FAP-expressing CAFs were inoculated in a 24-well plate; endogenous in cells; host or cells: cancer-associated fibroblasts (CAFs)
T1 sequence (Q12884 1-760): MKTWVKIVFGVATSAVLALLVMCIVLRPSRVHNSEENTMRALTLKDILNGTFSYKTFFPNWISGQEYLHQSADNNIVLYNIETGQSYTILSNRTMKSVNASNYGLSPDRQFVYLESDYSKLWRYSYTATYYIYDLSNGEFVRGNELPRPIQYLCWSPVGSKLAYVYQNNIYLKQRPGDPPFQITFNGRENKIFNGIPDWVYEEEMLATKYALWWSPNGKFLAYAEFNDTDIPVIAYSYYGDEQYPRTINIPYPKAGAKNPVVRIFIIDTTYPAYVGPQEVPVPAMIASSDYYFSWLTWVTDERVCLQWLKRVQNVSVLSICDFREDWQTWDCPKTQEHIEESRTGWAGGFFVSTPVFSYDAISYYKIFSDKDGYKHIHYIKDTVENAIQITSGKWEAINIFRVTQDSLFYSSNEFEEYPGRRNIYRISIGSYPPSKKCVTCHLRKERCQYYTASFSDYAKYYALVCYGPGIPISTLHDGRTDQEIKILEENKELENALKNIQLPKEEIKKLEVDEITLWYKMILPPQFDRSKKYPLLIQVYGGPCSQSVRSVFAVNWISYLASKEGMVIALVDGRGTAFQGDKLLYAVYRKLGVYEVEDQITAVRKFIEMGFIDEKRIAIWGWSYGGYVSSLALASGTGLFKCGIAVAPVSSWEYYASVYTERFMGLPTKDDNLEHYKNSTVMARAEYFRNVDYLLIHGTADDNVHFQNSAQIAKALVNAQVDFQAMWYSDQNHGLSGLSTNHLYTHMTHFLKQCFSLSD
Put plainly: FAP binding assay (radioligand competition) on CAFs. The following applies: radiolabeled compound co-incubated 60 min with corresponding unlabeled FAPI derivative. How it is done: FAP-expressing CAFs were inoculated in a 24-well plate and cultivated with a 10% (volume fraction) FBS-containing 1640 medium for 48 h before the experiment until a cell density was about 80% to 90%; the medium was changed to an FBS-free 1640 medium; and the ^68Ga-2PEG(3)-FAPI-dimer, ^68Ga-FAPI-46, or ^68Ga-2PEG(3)-FAPI-dimer+11.3 nmol FAPI-46 (for the blocking experiment) was added to the 24-well plate and incubated, with predetermined intervals of 10 min, 30 min, 60 min, 90 min, and 120 min. The FAP binding assay was conducted after a radiolabeled compound and a corresponding unlabeled FAPI derivative (1.27×10^−4-10^−13 mol/L of 2PEG(3)-FAPI-dimer was added to ^68Ga-2PEG(3)-FAPI-dimer; and 2.83×10^−4-1×10^−13 mol/L of FAPI-46 was added to ^68Ga-FAPI-46) were co-incubated for 60 min. A half-inhibitory concentration (IC50s) was calculated by using GraphPad Prism to fit data through nonlinear regression. In each step of the experiment, cells were washed twice with 1 mL of PBS. Finally, CAFs were lysed with 0.5 mL of a 1 mol/L NaOH aqueous solution to conduct radioactive counting with a gamma counter. 3 parallel replicates were set for each experiment.

The subject of series [3] is HCC-PDX-1. Nature of the series: Biodistribution in HCC-PDX-1 mice (gamma counter). Format: in vivo, mouse. The following applies: for tumor uptake: HCC-PDX-1, 1.48 MBq. How it is done:
HCC-PDX-1 mice were injected with 1.48 MBq of ^68Ga-2PEG(3)-FAPI-dimer, and 1 h and 4 h after the injection (3 parallel experiments per time point), major organs and tumors were isolated, weighed, and analyzed. The ^68Ga-FAPI-46 group (1.48 MBq) and blocking group (1.48 MBq ^68Ga-2PEG(3)-FAPI-dimer+30 nmol unlabeled FAPI-46) were compared in terms of biodistribution.

As a reminder, the IC50 is the concentration that inhibits the measured activity by half. `CN(CCCN1CCN(C(=O)COCCOCCOCCNC(=O)CCC(=O)N[C@@H](CCCCNC(=O)CN2CCN(CC(=O)[O-])CCN(CC(=O)[O-])CCN(CC(=O)[O-])CC2)C(=O)NCCOCCOCCOCC(=O)N2CCN(CCCN(C)c3ccc4nccc(C(=O)NCC(=O)N5CC(F)(F)C[C@H]5C#N)c4c3)CC2)CC1)c1ccc2nccc(C(=O)NCC(=O)N3CC(F)(F)C[C@H]3C#N)c2c1.[68Ga+3]` [^68Ga-2PEG(3)-FAPI-dimer]: the “radiochemical purity after incubation in FBS” value in series [1] (FBS) was “greater than 90%”. Further, the “radiochemical purity after incubation in PBS” value in series [1] (PBS (pH=7.4)) is listed as “greater than 90%”. In addition, in the series on HCC-PDX-1 [2] (HCC-PDX-1, 7.4 MBq via tail vein, PET), the “uptake in normal organs” value was “low and decline rapidly”. The “uptake and residence in tumor tissue compared with ^68Ga-FAPI-46” value in the series with HCC-PDX-1 [2] (HCC-PDX-1, 7.4 MBq via tail vein, PET 0.5 h, 1 h, 2 h, 4 h) was “better than”. In addition, in the series with HCC-PDX-1 [2] (two liver cancer PDX models (HCC-PDX-1 and HCC-PDX-2), 30 nmol unlabeled FAPI-46), the “blocking of tumor uptake by unlabeled FAPI-46” value is on record as “can be blocked by unlabeled FAPI-46”. Also, on FAP on CAFs, the IC50 is 3.57 nM. In addition, the “tumor uptake in the blocking group” value in the series with HCC-PDX-1 [3] (HCC-PDX-1, 1.48 MBq + 30 nmol unlabeled FAPI-46, 1 h after injection) worked out at 1.07±0.19 % ID/g; in the series with HCC-PDX-1 [3] (HCC-PDX-1, 1.48 MBq + 30 nmol unlabeled FAPI-46, 4 h after injection), 1.14±0.15 % ID/g. The tumor uptake with HCC-PDX-1 [3] (1 h after injection) came to 8.97±0.32 % ID/g; with HCC-PDX-1 [3] (4 h after injection), 7.61±0.64 % ID/g.
